Experiments:
[1] = target: T1, recombinant human c-Met/HGF receptor (Homo sapiens, UniProt P08581); assay: In vitro receptor tyrosine kinase assay (DELFIA), c-Met/HGF receptor; assay type: biochemical; details: read-out: CMET IC50
T1 construct: His tag (pBlueBacHis2A vector); made in house; host or cells: Hi-5 cells (Trichoplusia ni), baculovirus
Procedure: Cell pellets were frozen at −80° C. until purification was performed.
(§1) The coated plates were washed and stored at 4° C. […] After incubation, the kinase reactions were quenched with EDTA and the plates were washed.

VEGF receptor KDR = target: T2, VEGF receptor KDR (Homo sapiens, UniProt P35968); assay: In vitro receptor tyrosine kinase assay (DELFIA), VEGF receptor KDR; assay type: biochemical; details: read-out: VEGFR IC50
T2 construct: made in house; host or cells: Sf9 cells (Spodoptera frugiperda), baculovirus
T2 sequence (P35968 806-1356): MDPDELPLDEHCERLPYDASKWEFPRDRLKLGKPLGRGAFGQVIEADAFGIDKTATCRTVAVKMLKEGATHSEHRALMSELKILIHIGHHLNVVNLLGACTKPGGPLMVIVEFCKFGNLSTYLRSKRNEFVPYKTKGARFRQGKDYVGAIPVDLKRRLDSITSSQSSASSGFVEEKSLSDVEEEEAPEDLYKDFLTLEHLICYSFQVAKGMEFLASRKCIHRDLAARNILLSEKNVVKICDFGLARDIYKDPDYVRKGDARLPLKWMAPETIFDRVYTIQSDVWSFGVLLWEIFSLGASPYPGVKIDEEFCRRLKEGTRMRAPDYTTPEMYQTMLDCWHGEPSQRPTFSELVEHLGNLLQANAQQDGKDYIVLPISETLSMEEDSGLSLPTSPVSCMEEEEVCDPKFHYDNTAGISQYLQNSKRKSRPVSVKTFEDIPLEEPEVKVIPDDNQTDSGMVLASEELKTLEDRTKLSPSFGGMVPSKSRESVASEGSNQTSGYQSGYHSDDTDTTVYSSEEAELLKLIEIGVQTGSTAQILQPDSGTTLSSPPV
Procedure: In the case of VEGF receptor KDR a 1.6-kb cDNA corresponding to the catalytic domain of VEGFR2 or KDR (Genbank accession number AF035121 amino acid 806 to 1356) was cloned into the Pst I site of the pDEST20 Gateway vector (Invitrogen) for the production of a GST-tagged version of that enzyme.
The GST-VEGFR2806-1356 protein was expressed in […] (Spodoptera frugiperda) upon infection with recombinant baculovirus construct. […] Cell pellets were frozen at −80° C. until purification was performed.
The supernatant (cell extract) was used as starting material for purification of GST-VEGFR2806-1356.
The supernatant was loaded onto a GST-agarose column (Sigma) equilibrated with PBS pH 7.3. Following a four column volume (CV) wash with PBS pH 7.3+1% Triton X-100 and 4 CV wash with buffer B (50 mM Tris pH 8.0, 20% glycerol and 100 mM NaCl), bound proteins were step eluted with 5 CV of buffer B supplemented with 5 mM DTT and 15 mM glutathion. GST-VEGFR2806-1356 enriched fractions from this chromatography step were pooled based on U.V. trace i.e. fractions with high O.D.280. Final GST-VEGFR2806-1356 protein preparations concentrations were about 0.7 mg/ml with purity approximating 70%.
as §1

A549 = A549 wound healing inhibition (HGF dependent migration); assay type: cell-based; details: Homo sapiens, A549 cells, read-out: A549 WOUND HEALING INHIB IC50
Source text: (§2) HGF has well known activity in terms of inducing scattering and migration (wound healing) (Wells et al., Cell Motil Cytoskeleton. 2005 November 62(3):180-94; Miura et al., Urology 2001 December 58(6):1064-9; Nishimura et al., Int J Urol. 1998 May 5(3):276-81; Wang et al., Mol Cancer Ther. 2003 November; 2(11):1085-92; and Christensen et al., Cancer Res. 2003 Nov. 1; 63(21):7345-55).

DU145 = DU145 scattering inhibition (HGF dependent scattering); assay type: cell-based; details: Homo sapiens, DU-145; HGF dependent scattering, DU145 cells; read-out: DU145 SCATTERING INHIB IC50
Source text: as §2

T1 sequence (P08581 1078-1337): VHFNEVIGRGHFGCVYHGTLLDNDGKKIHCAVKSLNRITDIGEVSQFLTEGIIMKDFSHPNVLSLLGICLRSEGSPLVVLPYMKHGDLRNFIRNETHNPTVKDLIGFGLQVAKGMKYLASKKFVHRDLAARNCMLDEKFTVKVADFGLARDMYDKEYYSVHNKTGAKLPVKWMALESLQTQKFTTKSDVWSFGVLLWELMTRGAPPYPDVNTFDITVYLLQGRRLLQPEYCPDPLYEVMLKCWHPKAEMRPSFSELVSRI

Row | Compound | IC50 [1] [µM] | IC50 (VEGF receptor KDR) [µM] | IC50 (A549) [µM] | IC50 (DU145) [µM]
1 | COc1ccc(NC(=O)C2(C(=O)Nc3ccc(Oc4ccnc5cc(-c6cn(C)cn6)sc45)c(F)c3)CC2)cc1 | 0.05 to 0.25 | < 0.05 | 1 to 5 | 1 to 5
2 | CN1CCN(CCN(C)Cc2ccc(-c3cc4nccc(Oc5ccc(NC(=O)CC(=O)Nc6ccc(F)cc6)cc5F)c4s3)cc2)CC1 | < 0.05 | < 0.05 | < 1 | < 1
3 | CN(C)CCn1cnc(-c2cc3nccc(Oc4ccc(NC(=O)CC(=O)N(C)c5ccccc5)cc4F)c3s2)c1 | < 0.05 | < 0.05 | < 1 | < 1
4 | CN(C)CC#Cc1cc2nccc(Oc3ccc(NC(=O)CC(=O)Nc4ccccc4F)cc3F)c2s1 | 0.05 to 0.25 | 0.05 to 0.25 | > 10 | 1 to 5
5 | CN(C(=O)CC(=O)Nc1ccc(Oc2ccnc3cc(C(=O)N(C)N(C)C)sc23)c(F)c1)c1ccccc1 | 0.25 to 0.5 | > 0.5 | > 10 | > 10
6 | Cn1cnc(-c2cc3nccc(Oc4ccc(NC(=O)N5CCN(c6ccccc6)C5=O)cc4)c3s2)c1 | < 0.05 | 0.05 to 0.25 | < 1 | < 1
7 | COc1ccccc1NC(=O)CC(=O)Nc1ccc(Oc2ccnc3cc(C(=O)NN(C)C)sc23)c(F)c1 | 0.25 to 0.5 | > 0.5 | 1 to 5 | 1 to 5
8 | CN(C)CC/C=C\c1cc2nccc(Oc3ccc(NC(=O)CC(=O)N(C)c4ccccc4)cc3F)c2s1 | 0.05 to 0.25 | 0.05 to 0.25 | 1 to 5 | 1 to 5
9 | Cn1cncc1-c1cc2nccc(Oc3ccc(NC(=O)CC(=O)Nc4ccccc4)cc3F)c2s1 [drawing 288] | < 0.05 | < 0.05 | < 1 | < 1
10 | COc1ccccc1NC(=O)CC(=O)Nc1ccc(Oc2ccnc3cc(-c4cn(C(C)C)cn4)sc23)c(F)c1 | < 0.05 | < 0.05 | < 1 | < 1
11 | CN1CCN(Cc2ccc(-c3cc4nccc(Oc5ccc(NC(=O)C6(C(=O)Nc7ccc(F)cc7)CC6)cc5F)c4s3)cc2)CC1 | < 0.05 | < 0.05 | < 1 | < 1
12 | Cn1cnc(-c2cc3nccc(Oc4ccc(NC(=O)C5CCN(c6ccccc6F)C5=O)cc4F)c3s2)c1 (centres unmarked) | 0.05 to 0.25 | 0.25 to 0.5 | < 1 | 1 to 5
13 | O=C(Nc1ccc(Oc2ccnc3cc(-c4cn(CCCN5CCCC5)cn4)sc23)c(F)c1)N1CCN(c2ccccc2F)C1=O | 0.05 to 0.25 | < 0.05 | 5 to 10 | > 10
14 | CN1CCN(Cc2ccc(-c3cc4nccc(Oc5ccc(NC(=O)C6CCN(c7ccccc7)C6=O)cc5F)c4s3)cc2)CC1 (centres unmarked) | 0.05 to 0.25 | < 0.05 | 1 to 5 | 1 to 5
15 | CCn1cncc1-c1cc2nccc(Oc3ccc(NC(=O)CC(=O)Nc4ccccc4OC)cc3F)c2s1 | 0.05 to 0.25 | 0.05 to 0.25 | 1 to 5 | < 1
16 | Cn1ccnc1-c1cc2nccc(Oc3ccc(NC(=O)CS(=O)(=O)c4ccc(F)cc4)cc3F)c2s1 | 0.25 to 0.5 | 0.05 to 0.25 | 1 to 5 | 1 to 5
17 | COc1ccccc1NC(=O)CC(=O)Nc1ccc(Oc2ccnc3cc(-c4cncn4C)sc23)c(F)c1 [drawing 289] | < 0.05 | < 0.05 | 1 to 5 | 1 to 5
18 | CN(C)CCn1cnc(-c2cc3nccc(Oc4ccc(NC(=O)CC(=O)Nc5ccccc5)cc4F)c3s2)c1 | < 0.05 | < 0.05 | < 1 | < 1
19 | Cn1cnc(-c2cc3nccc(Oc4ccc(NC(CC(=O)Nc5ccc(F)cc5)C(F)(F)F)cc4F)c3s2)c1 (centres unmarked) | 0.05 to 0.25 | < 0.05 | < 1 | < 1
20 | COc1ccccc1NC(=O)CC(=O)Nc1ccc(Oc2ccnc3cc(-c4cn(C)cn4)sc23)c(F)c1 | 0.05 to 0.25 | < 0.05 | < 1 | < 1
21 | CN(C)Cc1cccc(-c2cc3nccc(Oc4ccc(NC(=O)CC(=O)Nc5ccccc5F)cc4F)c3s2)c1 [drawing 316] | < 0.05 | 0.05 to 0.25 | 1 to 5 | < 1

Row | Compound | IC50 [1] [µM] | IC50 (VEGF receptor KDR) [µM] | IC50 (A549) [µM] | IC50 (DU145) [µM]
22 | CN(C)CCCn1cnc(-c2cc3nccc(Oc4ccc(NC(=O)CC(=O)N(C)c5ccccc5)cc4F)c3s2)c1 | < 0.05 | < 0.05 | < 1 | < 1
23 | COc1ccccc1NC(=O)CC(=O)Nc1ccc(Oc2ccnc3cc(-c4nccn4C)sc23)c(F)c1 [drawing 284] | < 0.05 | < 0.05 | < 1 | 1 to 5
24 | CCn1cnc(-c2cc3nccc(Oc4ccc(NC(=O)C5(C(=O)N(C)c6ccc(F)cc6)CC5)cc4F)c3s2)c1 | 0.25 to 0.5 | < 0.05 | > 10 | > 10
25 | COc1ccccc1NC(=O)CC(=O)Nc1ccc(Oc2ccnc3cc(-c4ccc(OCCN5CCOCC5)cc4)sc23)c(F)c1 | 0.05 to 0.25 | < 0.05 | 1 to 5 | 1 to 5
26 | Cn1ccnc1-c1cc2nccc(Oc3ccc(NC(=S)N4CCN(c5ccc(F)cc5)C4=O)cc3F)c2s1 | 0.05 to 0.25 | < 0.05 | < 1 | < 1
27 | COc1cccc(Nc2cc3nccc(Oc4ccc(NC(=O)CC(=O)Nc5ccccc5)cc4F)c3s2)c1 | 0.05 to 0.25 | > 0.5 | 1 to 5 | 1 to 5
28 | Cn1cnc(-c2cc3nccc(Oc4ccc(NC(=O)C5(C(=O)Nc6ccccc6F)CC5)cc4F)c3s2)c1 | < 0.05 | < 0.05 | 1 to 5 | < 1
29 | Cn1ccnc1-c1cc2nccc(Oc3ccc(NC(=O)N4CCN(c5ccc(F)cc5)C4=O)cc3F)c2s1 | 0.05 to 0.25 | < 0.05 | < 1 | < 1
30 | CN1CCN(Cc2ccc(-c3cc4nccc(Oc5ccc(NC(=O)CC(=O)N(C)c6ccccc6)cc5F)c4s3)cc2)CC1 | 0.05 to 0.25 | < 0.05 | 1 to 5 | < 1
31 | CN1CCN(Cc2ccc(-c3cc4nccc(Oc5ccc(NC(=O)CC(=O)Nc6ccccc6)cc5F)c4s3)cc2)CC1 | < 0.05 | < 0.05 | 1 to 5 | < 1
32 | CC(C)n1cnc(-c2cc3nccc(Oc4ccc(NC(=O)C5CC(=O)N(c6ccccc6)C5)cc4F)c3s2)c1 (centres unmarked) | 0.25 to 0.5 | > 0.5 | 1 to 5 | > 10
33 | Cn1cnc(-c2cc3nccc(Oc4ccc(NC(=O)C5(C)CCN(c6ccccc6)C5=O)cc4F)c3s2)c1 (centres unmarked) | 0.05 to 0.25 | 0.25 to 0.5 | 1 to 5 | 1 to 5
34 | COc1ccccc1NC(=O)CC(=O)Nc1ccc(Oc2ccnc3cc(C4=CCCN(C)C4)sc23)c(F)c1 | 0.05 to 0.25 | 0.25 to 0.5 | 1 to 5 | 1 to 5
35 | COc1ccccc1NC(=O)CC(Nc1ccc(Oc2ccnc3cc(-c4cn(C)cn4)sc23)c(F)c1)C(F)(F)F (centres unmarked) | > 0.5 | < 0.05 | 1 to 5 | > 10
36 | O=C(Cn1cnc(-c2cc3nccc(Oc4ccc(NC(=O)CC(=O)Nc5ccccc5)cc4F)c3s2)c1)NCCCN1CCCC1 | < 0.05 | < 0.05 | 1 to 5 | 5 to 10
37 | COc1ccccc1NC(=O)CC(=O)Nc1ccc(Oc2ccnc3cc(-c4ccc(OCCCN(C)C)nc4)sc23)c(F)c1 | 0.05 to 0.25 | 0.25 to 0.5 | 1 to 5 | 1 to 5
38 | CCn1cnc(-c2cc3nccc(Oc4ccc(NC(=O)CC(=O)Nc5ccc(OC)cc5)cc4F)c3s2)c1 | 0.05 to 0.25 | < 0.05 | < 1 | 1 to 5
39 | CCn1cnc(-c2cc3nccc(Oc4ccc(NC(=O)N5CCN(c6ccc(F)cc6)C5=O)cc4F)c3s2)c1 | < 0.05 | < 0.05 | < 1 | < 1
40 | CN1CCN(Cc2ccc(-c3cc4nccc(Oc5ccc(NC(=O)C6CCN(c7ccccc7)C6=O)cc5F)c4s3)nc2)CC1 (centres unmarked) | 0.05 to 0.25 | < 0.05 | 1 to 5 | 1 to 5
41 | CN(C(=O)C1(C(=O)Nc2ccc(Oc3ccnc4cc(-c5cn(C)cn5)sc34)c(F)c2)CC1)c1ccccc1 | > 0.5 | 0.05 to 0.25 | < 1 | 1 to 5
